Here are results for one molecule from patent US20090275648A1, “MACROCYCLIC GHRELIN RECEPTOR ANTAGONISTS AND INVERSE AGONISTS AND METHODS OF USING THE SAME” (priority 2005, published 2009).

The target in one assay is ghrelin receptor (Homo sapiens, UniProt Q92847). The experiment in a line: Inverse agonist assay, Example 4. The class given is cell-based. The note with it: inverse agonist activity. An excerpt: The inverse agonist activity at the ghrelin receptor for compounds of the invention can be determined using the methods described in Intl. Pat. Appl. Publ. No. WO 2004/056869 and Holst, B.; Cygankiewicz, A.; Halkjaer, T.; Ankersen, A.; Schwartz, T. W. High constitutive signaling of the ghrelin receptor—identification of a potent inverse agonist. Mol. Endocrinol. 2003, 17, 2201-2210.
Sequence of ghrelin receptor (Q92847 whole entry): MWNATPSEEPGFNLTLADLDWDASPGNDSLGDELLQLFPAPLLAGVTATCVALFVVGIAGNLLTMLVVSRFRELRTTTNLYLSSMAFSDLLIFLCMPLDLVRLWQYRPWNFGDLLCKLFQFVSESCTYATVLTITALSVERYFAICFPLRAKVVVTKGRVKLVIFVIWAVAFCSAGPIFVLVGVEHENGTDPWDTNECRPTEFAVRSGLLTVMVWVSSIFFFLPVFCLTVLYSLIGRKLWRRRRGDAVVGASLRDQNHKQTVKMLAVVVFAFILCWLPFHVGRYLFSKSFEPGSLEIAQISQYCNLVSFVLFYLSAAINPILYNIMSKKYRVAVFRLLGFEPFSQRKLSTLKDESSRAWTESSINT

In assay [1] the target is T1, HEK293 cells expressing GHS-R1a receptor (Homo sapiens, UniProt Q92847).
T1 construct: host or cells: HEK293 cells (grown under geneticin selection)
T1 sequence (Q92847 whole entry): as above
Briefly: Fluorescence functional assay (ghrelin receptor), Example 2. The class given is cell-based. The note with it: assay of Example 2 (fluorescence, calcium). The procedure:
The compounds of the present invention were evaluated for their ability to interact at the human ghrelin receptor utilizing a competitive radioligand binding assay, fluorescence assay or Aequorin functional assay as described in the examples below. Such methods can be conducted, if so desired, in a high throughput manner to permit the simultaneous evaluation of many compounds.
• 1. Hanks' BSS without phenol red (Life Technologies) • 2. Hepes buffer • 3. Probenecid (Sigma) • 4. FLIPR Calcium-3 Assay Kit (Molecular Devices #R-8091) • 5. Falcon cell culture 96-well black/clear bottom plates • 6. 0.05% trypsin-EDTA • 7. […]
The plates were removed from the incubator and the media removed by inversion of the plates. […] For agonist testing, after reading for ten (10) sec, 25 μL of 2× test compound or control was injected into the assay plate. Fluorescence was monitored for an additional 50 sec. A reading was taken every two (2) seconds for a total of 30 readings per assay point.
For antagonist testing, after reading for ten (10) sec, 12.5 μL of 3× test compound or control was injected into the assay plate and allowed to react for three (3) min. At that time, 4 nM ghrelin (corresponds to EC80) was injected and fluorescence was monitored for an additional 60 sec. A reading was taken every two (2) seconds for a total of 125 readings per data point. […]

As for `CCC(C)[C@@H]1NCCOc2ccccc2/C=C/CNC(=O)[C@@H](Cc2ccccc2)NC(=O)[C@H](C(C)O)N(C)C1=O` (some centres unmarked) [Compound 502], the IC50 at ghrelin receptor fell in the range of 0.001 to 0.1 µM. Besides, the inhibitory constant (Ki) in assay [1] was 0.1 to 1 µM.

By IC50 is commonly meant the concentration that inhibits the measured activity by half. A higher IC50 goes with weaker potency in that assay. Usually Ki stands for a dissociation constant, usually derived from enzyme kinetics or from competition with a known ligand.
